Experimental data from ChEMBL document CHEMBL1921781, “Antibacterial and antitubercular activity of fosmidomycin, FR900098, and their lipophilic analogs” (2011).
In brackets after ≈: the same amount, converted by molar mass.

Assays:
Format in all cases: functional
Enterococcus faecalis = experiment: Antibacterial activity against Enterococcus faecalis after overnight incubation by microbroth dilution method
Escherichia coli [1] = experiment: Antibacterial activity against Escherichia coli K-12 after overnight incubation by microbroth dilution method
Staphylococcus aureus [2] = experiment: Antibacterial activity against methicillin-susceptible Staphylococcus aureus after overnight incubation by microbroth dilution method
[3] = test system: Mycobacterium tuberculosis; experiment: Antitubercular activity against Mycobacterium tuberculosis H37Rv after 7 days by microbroth dilution method; details: 168 h
Staphylococcus aureus [4] = experiment: Antibacterial activity against methicillin-resistant Staphylococcus aureus after overnight incubation by microbroth dilution method
Escherichia coli [5] = experiment: Antibacterial activity against Escherichia coli expressing TolC after overnight incubation by microbroth dilution method
Acinetobacter = experiment: Antibacterial activity against Acinetobacter after overnight incubation by microbroth dilution method
Bacillus anthracis = experiment: Antibacterial activity against Bacillus anthracis after overnight incubation by microbroth dilution method

`O=CN(O)CCCP(=O)(O)O` [FOSMIDOMYCIN] gave an MIC (Enterococcus faecalis) of over 200 µg/mL, an MIC (Escherichia coli [1]) of 12.5 µg/mL (≈ 68.3 µM) and an MIC (Staphylococcus aureus [2]) of over 200 µg/mL. For the same compound, the MIC [3] was over 500 µg/mL, the MIC (Staphylococcus aureus [4]) was 200 µg/mL (≈ 1090 µM) and the MIC (Escherichia coli [5]) was 6.25 µg/mL (≈ 34.1 µM). The MIC (Acinetobacter) was 100 µg/mL (≈ 546 µM) and the MIC (Bacillus anthracis) was 0.78 µg/mL (≈ 4.26 µM).
`CC(=O)N(O)CCCP(=O)(OCOC(=O)C(C)(C)C)OCOC(=O)C(C)(C)C` showed an MIC (Enterococcus faecalis) of over 200 µg/mL, an MIC (Escherichia coli [1]) of over 200 µg/mL and an MIC (Staphylococcus aureus [2]) of 100 µg/mL (≈ 235 µM). For the same compound, the MIC [3] was 50 µg/mL (≈ 118 µM), the MIC (Staphylococcus aureus [4]) was 50 µg/mL (≈ 118 µM) and the MIC (Escherichia coli [5]) was 100 µg/mL (≈ 235 µM). The MIC (Acinetobacter) was over 200 µg/mL and the MIC (Bacillus anthracis) was 200 µg/mL (≈ 470 µM).
For `CC(=O)N(O)CCCP(=O)(OC(C)C)OC(C)C`, the MIC (Enterococcus faecalis) was over 200 µg/mL, the MIC (Escherichia coli [1]) was over 200 µg/mL and the MIC (Staphylococcus aureus [2]) was over 200 µg/mL. For the same compound, the MIC [3] was 400 µg/mL (≈ 1420 µM), the MIC (Staphylococcus aureus [4]) was over 200 µg/mL and the MIC (Escherichia coli [5]) was over 200 µg/mL. For the same compound, the MIC (Acinetobacter) was over 200 µg/mL and the MIC (Bacillus anthracis) was over 200 µg/mL.
`CCOC(=O)OC(C)OP(=O)(CCCN(O)C(C)=O)OC(C)OC(=O)OCC` (stereo not drawn) gave an MIC (Enterococcus faecalis) of over 200 µg/mL, an MIC (Escherichia coli [1]) of over 200 µg/mL and an MIC (Staphylococcus aureus [2]) of over 200 µg/mL. For the same compound, the MIC [3] was 400 µg/mL (≈ 932 µM), the MIC (Staphylococcus aureus [4]) was over 200 µg/mL and the MIC (Escherichia coli [5]) was 200 µg/mL (≈ 466 µM). The MIC (Acinetobacter) was over 200 µg/mL and the MIC (Bacillus anthracis) was over 200 µg/mL.
`CC(=O)N(O)CCCP(=O)([O-])O.[Na+]` was tested, and the MIC (Enterococcus faecalis) was over 200 µg/mL, the MIC (Escherichia coli [1]) was 200 µg/mL and the MIC (Staphylococcus aureus [2]) was over 200 µg/mL. The MIC [3] was over 500 µg/mL, the MIC (Staphylococcus aureus [4]) was 50 µg/mL and the MIC (Escherichia coli [5]) was 12.5 µg/mL. The MIC (Acinetobacter) was 50 µg/mL and the MIC (Bacillus anthracis) was 50 µg/mL.
Compound `CCOP(=O)(CCCN(O)C(C)=O)OCC` has an MIC (Enterococcus faecalis) of over 200 µg/mL, an MIC (Escherichia coli [1]) of over 200 µg/mL and an MIC (Staphylococcus aureus [2]) of over 200 µg/mL. The MIC [3] was 200 µg/mL (≈ 790 µM), the MIC (Staphylococcus aureus [4]) was 200 µg/mL (≈ 790 µM) and the MIC (Escherichia coli [5]) was over 200 µg/mL. For the same compound, the MIC (Acinetobacter) was over 200 µg/mL and the MIC (Bacillus anthracis) was 200 µg/mL (≈ 790 µM).
Work on `CCOP(=O)(CCCN(O)C=O)OCC` yielded an MIC (Enterococcus faecalis) of over 200 µg/mL, an MIC (Escherichia coli [1]) of over 200 µg/mL and an MIC (Staphylococcus aureus [2]) of over 200 µg/mL. It also gave an MIC [3] of 400 µg/mL (≈ 1670 µM), an MIC (Staphylococcus aureus [4]) of over 200 µg/mL and an MIC (Escherichia coli [5]) of over 200 µg/mL. The MIC (Acinetobacter) was over 200 µg/mL and the MIC (Bacillus anthracis) was over 200 µg/mL.
`CC(=O)N(O)CCCP(=O)(OC(C)OC(=O)c1ccccc1)OC(C)OC(=O)c1ccccc1` (stereo not drawn) gave an MIC (Enterococcus faecalis) of over 200 µg/mL, an MIC (Escherichia coli [1]) of 50 µg/mL (≈ 101 µM) and an MIC (Staphylococcus aureus [2]) of over 200 µg/mL. The MIC [3] was 100 µg/mL (≈ 203 µM), the MIC (Escherichia coli [5]) was 50 µg/mL (≈ 101 µM) and the MIC (Acinetobacter) was 100 µg/mL (≈ 203 µM). It also gave an MIC (Bacillus anthracis) of 50 µg/mL (≈ 101 µM).
With `CC(=O)N(O)CCCP(=O)(OC(C)OC(=O)OC(C)(C)C)OC(C)OC(=O)OC(C)(C)C` (stereo not drawn) the MIC (Enterococcus faecalis) was over 200 µg/mL, the MIC (Escherichia coli [1]) was over 200 µg/mL and the MIC (Staphylococcus aureus [2]) was 100 µg/mL (≈ 206 µM). It also gave an MIC [3] of 400 µg/mL (≈ 824 µM), an MIC (Staphylococcus aureus [4]) of 50 µg/mL (≈ 103 µM) and an MIC (Escherichia coli [5]) of over 200 µg/mL. The MIC (Acinetobacter) was over 200 µg/mL and the MIC (Bacillus anthracis) was 200 µg/mL (≈ 412 µM).
Work on `CCCCCCOP(=O)(CCCN(O)C(C)=O)OCCCCCC` yielded an MIC [3] of 100 µg/mL (≈ 274 µM).
`CC(=O)N(O)CCCP(=O)(OCC(=O)OC(C)(C)C)OCC(=O)OC(C)(C)C` was tested, and the MIC (Enterococcus faecalis) was over 200 µg/mL, the MIC (Escherichia coli [1]) was over 200 µg/mL and the MIC (Staphylococcus aureus [2]) was 100 µg/mL (≈ 235 µM). For the same compound, the MIC [3] was 400 µg/mL (≈ 940 µM), the MIC (Staphylococcus aureus [4]) was 25 µg/mL (≈ 58.8 µM) and the MIC (Escherichia coli [5]) was over 200 µg/mL. For the same compound, the MIC (Acinetobacter) was over 200 µg/mL and the MIC (Bacillus anthracis) was over 200 µg/mL.
In the case of `CC(=O)N(O)CCCP(=O)(OCOC(=O)c1ccccc1)OCOC(=O)c1ccccc1`, the MIC (Enterococcus faecalis) is reported as over 200 µg/mL, the MIC (Escherichia coli [1]) is reported as over 200 µg/mL and the MIC (Staphylococcus aureus [2]) is reported as over 200 µg/mL. For the same compound, the MIC [3] was 25 µg/mL (≈ 53.7 µM), the MIC (Staphylococcus aureus [4]) was over 200 µg/mL and the MIC (Escherichia coli [5]) was 50 µg/mL (≈ 107 µM). It also gave an MIC (Acinetobacter) of 200 µg/mL (≈ 430 µM) and an MIC (Bacillus anthracis) of 100 µg/mL (≈ 215 µM).
